Measurements reported in PubChem BioAssay AID1259407 (Chemical Carcinogenesis Research Information System (CCRIS), 2018).
Activity calls are given as the source filed them. No rule for the calls is given here.

System: CCRIS mutagenicity, Ames/micronucleus/aberration tests
Assay: CCRIS mutagenicity studies
[1] = Test System: AMES SALMONELLA TYPHIMURIUM, Strain/Indicator: TA98, Metabolic Activation: NONE, Method: PREINCUBATION
[2] = Test System: AMES SALMONELLA TYPHIMURIUM, Strain/Indicator: TA100, Metabolic Activation: NONE, Method: PREINCUBATION
[3] = Test System: AMES SALMONELLA TYPHIMURIUM, Strain/Indicator: TA98, Metabolic Activation: NONE, Method: STANDARD PLATE
[4] = Test System: AMES SALMONELLA TYPHIMURIUM, Strain/Indicator: TA100, Metabolic Activation: NONE, Method: STANDARD PLATE

Measured: mutagenic call

CCOCn1cc(F)c(=O)n(C(=O)c2cccc(C(=O)Oc3nc(OC(=O)c4ccccc4)ccc3C#N)c2)c1=O
inactive: [1] inactive; negative | Test System: AMES SALMONELLA TYPHIMURIUM, Strain/Indicator: TA98, Metabolic Activation: S-9, Method: PREINCUBATION inactive; negative | [2] inactive; negative | Test System: AMES SALMONELLA TYPHIMURIUM, Strain/Indicator: TA100, Metabolic Activation: S-9, Method: PREINCUBATION inactive; negative | Test System: AMES SALMONELLA TYPHIMURIUM, Strain/Indicator: TA1535, Metabolic Activation: NONE, Method: PREINCUBATION inactive; negative | Test System: AMES SALMONELLA TYPHIMURIUM, Strain/Indicator: TA1535, Metabolic Activation: S-9, Method: PREINCUBATION inactive; negative | Test System: AMES SALMONELLA TYPHIMURIUM, Strain/Indicator: TA1537, Metabolic Activation: NONE, Method: PREINCUBATION inactive; negative | Test System: AMES SALMONELLA TYPHIMURIUM, Strain/Indicator: TA1537, Metabolic Activation: S-9, Method: PREINCUBATION inactive; negative | Test System: E. COLI, Strain/Indicator: WP2 UVRA, Metabolic Activation: NONE, Method: PREINCUBATION inactive; negative | Test System: E. COLI, Strain/Indicator: WP2 UVRA, Metabolic Activation: S-9, Method: PREINCUBATION inactive; negative

O=NN1CCCCCC1
inactive: Test System: AMES SALMONELLA TYPHIMURIUM, Strain/Indicator: TA100, Metabolic Activation: RABBIT, LUNG MACROPHAGES, Method: PREINCUBATION inactive; negative | Test System: AMES SALMONELLA TYPHIMURIUM, Strain/Indicator: TA100, Metabolic Activation: RABBIT, LUNG, CLARA CELLS, Method: PREINCUBATION inactive; negative | Test System: AMES SALMONELLA TYPHIMURIUM, Strain/Indicator: TA100, Metabolic Activation: RABBIT, LUNG, TYPE II CELLS, Method: PREINCUBATION inactive; negative | Test System: AMES SALMONELLA TYPHIMURIUM, Strain/Indicator: TA1530, Metabolic Activation: RABBIT, LUNG MACROPHAGES, Method: PREINCUBATION inactive; negative | Test System: AMES SALMONELLA TYPHIMURIUM, Strain/Indicator: TA1530, Metabolic Activation: RABBIT, LUNG, CLARA CELLS, Method: PREINCUBATION inactive; negative | Test System: AMES SALMONELLA TYPHIMURIUM, Strain/Indicator: TA1530, Metabolic Activation: RABBIT, LUNG, TYPE II CELLS, Method: PREINCUBATION inactive; negative | Test System: UDS RABBIT LUNG MACROPHAGES, Strain/Indicator: THY INCORP, Metabolic Activation: NONE, Method: LIQUID SCINTILLATION COUNTING inactive; negative | Test System: UDS RABBIT LUNG TYPE II CELLS, Strain/Indicator: THY INCORP, Metabolic Activation: NONE, Method: LIQUID SCINTILLATION COUNTING inactive; negative
active: Test System: AMES SALMONELLA TYPHIMURIUM, Strain/Indicator: TA100, Metabolic Activation: RABBIT, LIVER, S-9, Method: PREINCUBATION active; positive | Test System: AMES SALMONELLA TYPHIMURIUM, Strain/Indicator: TA1530, Metabolic Activation: RABBIT, LIVER, S-9, Method: PREINCUBATION active; positive | Test System: UDS RABBIT LUNG CLARA CELLS, Strain/Indicator: THY INCORP, Metabolic Activation: NONE, Method: LIQUID SCINTILLATION COUNTING active; positive

O=C1CCCc2cc([N+](=O)[O-])c3ccccc3c21
active: Test System: AMES SALMONELLA TYPHIMURIUM, Strain/Indicator: TA98, Metabolic Activation: NONE active; positive | Test System: AMES SALMONELLA TYPHIMURIUM, Strain/Indicator: TA98, Metabolic Activation: S-9 active; positive | Test System: AMES SALMONELLA TYPHIMURIUM, Strain/Indicator: TA100, Metabolic Activation: NONE active; positive | Test System: AMES SALMONELLA TYPHIMURIUM, Strain/Indicator: TA100, Metabolic Activation: S-9 active; positive | Test System: AMES SALMONELLA TYPHIMURIUM, Strain/Indicator: TA100NR, Metabolic Activation: NONE active; positive | Test System: AMES SALMONELLA TYPHIMURIUM, Strain/Indicator: TA100NR, Metabolic Activation: S-9 active; positive
inactive: Test System: AMES SALMONELLA TYPHIMURIUM, Strain/Indicator: TA98-1,8-DNP6, Metabolic Activation: NONE inactive; negative | Test System: AMES SALMONELLA TYPHIMURIUM, Strain/Indicator: TA98-1,8-DNP6, Metabolic Activation: S-9 inactive; negative | Test System: AMES SALMONELLA TYPHIMURIUM, Strain/Indicator: TA98NR, Metabolic Activation: NONE inactive; negative | Test System: AMES SALMONELLA TYPHIMURIUM, Strain/Indicator: TA98NR, Metabolic Activation: S-9 inactive; negative

C[C@@H]1C[C@@]2(C)[C@@H](CC[C@@H]3[C@@H]2CC[C@]2(C)[C@@H](O)CC[C@@H]32)CC1=O
inactive: [3] inactive; negative | Test System: AMES SALMONELLA TYPHIMURIUM, Strain/Indicator: TA98, Metabolic Activation: S-9, Method: STANDARD PLATE inactive; negative | [4] inactive; negative | Test System: AMES SALMONELLA TYPHIMURIUM, Strain/Indicator: TA100, Metabolic Activation: S-9, Method: STANDARD PLATE inactive; negative | Test System: E. COLI, Strain/Indicator: WP2 (HCR), Metabolic Activation: NONE, Method: STANDARD PLATE inactive; negative | Test System: E. COLI, Strain/Indicator: WP2 (HCR), Metabolic Activation: S-9, Method: STANDARD PLATE inactive; negative

CCN(CC)CCNc1ccc(C)c2sc3ccccc3c(=O)c12
active: Test System: AMES SALMONELLA TYPHIMURIUM, Strain/Indicator: TA1535, Metabolic Activation: RAT, LIVER, S-9, AROCLOR 1254 OR PHENOBARBITOL, Method: STANDARD PLATE active; positive | Test System: AMES SALMONELLA TYPHIMURIUM, Strain/Indicator: TA1537, Metabolic Activation: NONE, Method: STANDARD PLATE active; positive | Test System: AMES SALMONELLA TYPHIMURIUM, Strain/Indicator: TA1537, Metabolic Activation: RAT, LIVER, S-9, AROCLOR 1254 OR PHENOBARBITOL, Method: STANDARD PLATE active; positive | Test System: MOUSE LYMPHOMA, Strain/Indicator: L5178Y (TK+/TK-), Metabolic Activation: NONE, Method: SUSPENSION/PLATE active; positive
inactive: [3] inactive; negative | Test System: AMES SALMONELLA TYPHIMURIUM, Strain/Indicator: TA98, Metabolic Activation: RAT, LIVER, S-9, AROCLOR 1254 OR PHENOBARBITOL, Method: STANDARD PLATE inactive; negative | [4] inactive; negative | Test System: AMES SALMONELLA TYPHIMURIUM, Strain/Indicator: TA100, Metabolic Activation: RAT, LIVER, S-9, AROCLOR 1254 OR PHENOBARBITOL, Method: STANDARD PLATE inactive; negative | Test System: AMES SALMONELLA TYPHIMURIUM, Strain/Indicator: TA1535, Metabolic Activation: NONE, Method: STANDARD PLATE inactive; negative | Test System: AMES SALMONELLA TYPHIMURIUM, Strain/Indicator: TA1538, Metabolic Activation: NONE, Method: STANDARD PLATE inactive; negative | Test System: AMES SALMONELLA TYPHIMURIUM, Strain/Indicator: TA1538, Metabolic Activation: RAT, LIVER, S-9, AROCLOR 1254 OR PHENOBARBITOL, Method: STANDARD PLATE inactive; negative

Cc1ccc(NCCCl)cc1
inactive: Test System: AMES SALMONELLA TYPHIMURIUM, Strain/Indicator: TA1978, Metabolic Activation: NONE, Method: STANDARD PLATE inactive; negative
active: [3] active; positive | [4] active; positive | Test System: AMES SALMONELLA TYPHIMURIUM, Strain/Indicator: TA1977, Metabolic Activation: NONE, Method: STANDARD PLATE active; positive

COC(=O)[C@H](C)Cl
inactive: [2] inactive; negative | Test System: AMES SALMONELLA TYPHIMURIUM, Strain/Indicator: TA100, Metabolic Activation: RAT, LIVER, S-9, PCB, Method: PREINCUBATION inactive; negative

Cc1cccc([N+](=O)[O-])c1C
inactive: [1] inactive; negative | Test System: AMES SALMONELLA TYPHIMURIUM, Strain/Indicator: TA98, Metabolic Activation: RAT, LIVER, S-9, KANECHLOR 500, Method: PREINCUBATION inactive; negative | [2] inactive; negative | Test System: AMES SALMONELLA TYPHIMURIUM, Strain/Indicator: TA100, Metabolic Activation: RAT, LIVER, S-9, KANECHLOR 500, Method: PREINCUBATION inactive; negative
